Test results reported in patent US20230077723A1, “N-SUBSTITUTED-3,4-(FUSED 5-RING)-5-PHENYL-PYRROLIDINE-2-ONE COMPOUNDS AS INHIBITORS OF ISOQC AND/OR QC ENZYME” (Scenic Immunology B.V., priority 2019, published 2023).

tested on: pyroglutamylated CD47 (pE-CD47) in KBM7 cells; assay: Assay 6 - cell-based potency assay (pE-CD47 CC2C6 staining vs total CD47); set-up: species or system human; conditions: 72 hours, CC2C6 signal, read-out: Cell Pot. Assay No. 6
Method: Cells were spun for 4 minutes at 1500 rpm and washed once with PBS/0.5% BSA. Cells were spun down again and the supernatant was removed and incubated in 100 uL antibody staining solution (PBS/0.5% BSA/0.1 μg/mL DAPI (4′,6-diamidino-2-phenylindole, ThermoFisher Scientific) and a mixture of 1:500 FITC-conjugated anti-human CD47 clone 2D3, which recognizes total CD47 irrespective of its pyroglutamylation state, and 1:500 Alexa647-conjugated anti-human CD47 clone CC2C6, which specifically detects pyroglutamylated CD47) for 2 hours at 4° C. Next, the cells were spun down and washed twice with 2×150 μL PBS/0.5% BSA to remove unbound antibody. Cells were again spun down and taken up in 300 μL FACS buffer before analysis on a Celesta FACS machine (BD Biosciences).
KBM7 cells (Kotecki et al., 1999) were infected with lentivirus produced by transfecting pSCNC-LentiCRISPR-QPCTL or pSCNC-LentiCRISPR-CD47 into HEK-293T cells according to standard protocols. After 24 hours incubation, cells were selected with puromycin (Invivogen, 1 μg/mL) for 48 hours. Cells were stained for total CD47 and pE-CD47 and QPCTL k.o. cells were sorted out as negative for pE-CD47, and CD47 k.o. cells as negative for total CD47, using a FACSAria III and FACS Diva software (BD Biosciences).
In order to test compounds for their effect on pyroglutamylation in live cells, 25000 KBM7 cells per well were seeded in a 96-well U-bottom plate in 150 μl IMDM/10% FCS/1% Pen/Strep medium and a 10-point 2-fold dilution range of test compounds. After 72 hours incubation at 37° C., 5% CO2, cells were stained for total CD47 and pE-CD47 and analyzed on a BD Celesta using FACS Diva software (BD Biosciences). Cells gated for DAPI negativity were recorded and the median fluorescence intensity (MFI) of each sample was transformed to linearly scale between the MFI's of wildtype and CD47 knockout cells (in case of the 2D3 antibody) and the wildtype and QPCTL knockout cells (in case of the CC2C6 antibody). IC50's were calculated by 3 parameter logistic regression of the CC2C6 signal vs. compound concentration, where the top of the sigmoidal curve was fixed at 1, using R and the drc package (http://www.r-project.org, https://cran.r-project.org/web/packages/drc/index.html).

SMILES	IC50
Cc1[nH]nc2c1C(c1ccc(N3CCC(F)(F)C3)cc1F)N(c1ccc3[nH]cnc3c1)C2=O (centres unmarked) [FRPPO-126C]	< 1 µM
Cc1c2c(nn1C)C(=O)N(c1ccc3[nH]cnc3c1)C2c1ccc(N2CCC(F)(F)C2)c(F)c1F (centres unmarked) [FRPPO-066]	1 to 5 µM

same assay, conditions: Homo sapiens, KBM-7, 72 h, CC2C6 signal, Table 2, read-out: Cell Potency Assay 6 (Comparison Data)

SMILES	IC50
CCCOc1ccc(C2c3c(nn(C)c3C)C(=O)N2c2ccc3[nH]cnc3c2)cc1 (racemic) [FRPPO-001]	< 1 µM
CCCOc1ccc(C2c3c(nn(C)c3C)C(=O)N2c2ccc3nnn(C)c3c2)cc1 (racemic) [REF-001, reference compound]	> 6.25 µM
CCCOc1ccc(C2c3c(nn(C)c3C)C(=O)N2c2cc(C)c3nnc(C)n3c2)cc1 (racemic) [REF-004, reference compound]	≥ 50 µM
CCCOc1ccc(C2c3c(nn(C)c3C)C(=O)N2c2cc(C)c3nnn(C)c3c2)cc1 (racemic) [REF-002, reference compound]	> 6.25 µM
CCCOc1ccc(C2c3c(nn(C)c3C)C(=O)N2c2cc(NC)c3nnc(C)n3n2)cc1 (racemic) [REF-008, reference compound]	≥ 50 µM
CCCOc1ccc(C2c3c(nn(C)c3C)C(=O)N2c2ccc3nnn(C)c3n2)cc1 (racemic) [REF-007, reference compound]	> 6.25 µM
CCCOc1ccc(C2c3c(nn(C)c3C)C(=O)N2c2cc(C)c3nnc(C)n3n2)cc1 (racemic) [REF-006, reference compound]	> 6.25 µM

same assay, conditions: Homo sapiens, KBM-7, 72 h, CC2C6 signal, read-out: Cell Pot. Assay No. 6

SMILES	IC50
Cc1c2c(nn1C)C(=O)N(c1ccc3[nH]cnc3c1)C2c1ccc(N2CCC3(CCOC3)C2)cc1F (centres unmarked) [FRPPO-104]	< 1 µM
CCCOc1ccc(C2c3c(nn(C)c3C)C(=O)N2c2ccc3[nH]cnc3c2)cc1 (racemic) [FRPPO-001]	< 1 µM
Cc1nn(C)c2c1C(c1ccc(N3CCC(F)(F)C3)c(F)c1F)N(c1ccc3[nH]cnc3c1)C2=O (centres unmarked) [FRPPO-169]	1 to 5 µM
Cc1c2c(nn1C)C(c1ccc(Br)cc1F)N(c1ccc3[nH]cnc3c1)C2=O (centres unmarked) [FRPPO-047]	5 to 50 µM
Cc1nn(C)c2c1C(c1ccc(N3CCC(F)(F)C3)cc1F)N(c1ccc3[nH]cnc3c1)C2=O (centres unmarked) [FRPPO-170]	1 to 5 µM
Cc1c2c(nn1C)C(=O)N(c1ccc3[nH]cnc3c1)C2c1ccc(N2CCN(C)CC2)cc1F (centres unmarked) [FRPPO-083]	1 to 5 µM
O=C1c2scnc2C(c2ccc(Cl)cc2F)N1c1ccc2[nH]cnc2c1 (centres unmarked) [FRPPO-057]	5 to 50 µM
Cc1c2c(nn1C)C(=O)N(c1ccn3ccnc3c1)C2c1ccc(N2CCOC(C)C2)cc1F (centres unmarked) [FRPPO-197]	< 1 µM
Cc1c2c(nn1C)C(=O)N(c1ccc3[nH]cnc3c1)C2c1ccc(-c2csc(C(F)(F)F)n2)cc1F (centres unmarked) [FRPPO-146]	< 1 µM
Cc1nn(C)c2c1C(=O)N(c1ccc3[nH]cnc3c1)C2c1ccc(N2CCC(F)(F)C2)cc1F (centres unmarked) [FRPPO-049]	< 1 µM
Cc1nn(C)c2c1C(c1ccc(-n3cc(C(F)(F)F)cn3)cc1)N(c1ccc3[nH]cnc3c1)C2=O (centres unmarked) [FRPPO-174]	1 to 5 µM
Cc1[nH]nc2c1C(c1ccc(-c3cnc(C(F)(F)F)s3)cc1F)N(c1ccc3[nH]cnc3c1)C2=O (centres unmarked) [FRPPO-145]	< 1 µM
Cc1c2c(nn1C1CC1)C(=O)N(c1ccc3[nH]cnc3c1)C2c1ccc(N2CCC(F)(F)C2)cc1F (centres unmarked) [FRPPO-127B]	< 1 µM
Cn1nc(C2CC2)c2c1C(=O)N(c1ccc3[nH]cnc3c1)C2c1ccc(N2CCC(F)(F)C2)cc1 (centres unmarked) [FRPPO-168]	1 to 5 µM
Cc1c2c(nn1C)C(=O)N(c1ccc3[nH]cnc3c1)C2c1ccc(N2CCNC(C)C2)cc1F (centres unmarked) [FRPPO-082]	5 to 50 µM
CC(C)c1c2c(nn1C)C(=O)N(c1ccc3[nH]cnc3c1)C2c1ccc(N2CCC(F)(F)C2)cc1F (centres unmarked) [FRPPO-152A]	< 1 µM
Cc1c2c(nn1C)C(=O)N(c1ccc3[nH]cnc3c1)C2c1ccc(N2CCC[C@H]2C)cc1F (some centres unmarked) [FRPPO-115A]	< 1 µM
CC(C)c1[nH]nc2c1C(c1ccc(N3CCC(F)(F)C3)cc1F)N(c1ccc3[nH]cnc3c1)C2=O (centres unmarked) [FRPPO-153]	< 1 µM
Cc1nn(C)c2c1C(=O)N(c1ccc3[nH]cnc3c1)C2c1ccc(Cl)cc1F (centres unmarked) [FRPPO-052]	5 to 50 µM
O=C1c2scnc2C(c2ccc(N3CCC(F)(F)C3)cc2F)N1c1ccc2[nH]cnc2c1 (centres unmarked) [FRPPO-054]	1 to 5 µM
Cc1c2c(nn1C)C(=O)N(c1ccc3[nH]cnc3c1)C2c1ccc(N2CCC23COC3)cc1F (centres unmarked) [FRPPO-079]	1 to 5 µM
Cc1c2c(nn1C)C(=O)N(c1ccc3[nH]cnc3c1)C2c1ccc(-c2cnc(C(F)(F)F)s2)cc1F (centres unmarked) [FRPPO-144]	< 1 µM
Cc1c2c(nn1C)C(=O)N(c1ccc3[nH]cnc3c1)C2c1ccc(N2CCC2)cc1F (centres unmarked) [FRPPO-070]	1 to 5 µM
Cn1ncc2c1C(c1ccc(Cl)cc1F)N(c1ccc3[nH]cnc3c1)C2=O (centres unmarked) [FRPPO-051]	1 to 5 µM
Cc1c2c(nn1C)C(=O)N(c1ccc3[nH]cnc3c1)C2c1ccc(N2CCN(S(C)(=O)=O)CC2)cc1F (centres unmarked) [FRPPO-111]	1 to 5 µM
Cc1nn(C)c2c1C(c1ccc(OCCC(F)F)c(F)c1F)N(c1ccc3[nH]cnc3c1)C2=O (centres unmarked) [FRPPO-167]	1 to 5 µM
Cc1c2c(nn1C)C(c1ccc(N3CCC(F)(F)C3)cc1F)N(c1ccc3[nH]cnc3c1)C2=O (centres unmarked) [FRPPO-046]	5 to 50 µM

SMILES	IC50
O=C1c2ncsc2C(c2ccc(Cl)cc2F)N1c1ccc2[nH]cnc2c1 (centres unmarked) [FRPPO-063]	1 to 5 µM
Cc1c2c(nn1C)C(=O)N(c1ccc3[nH]cnc3c1)C2c1ccc(C#N)cc1F (centres unmarked) [FRPPO-069]	1 to 5 µM
Cc1nc2c(s1)C(c1ccc(N3CCC(F)(F)C3)cc1F)N(c1ccc3[nH]cnc3c1)C2=O (centres unmarked) [FRPPO-061]	1 to 5 µM
Cn1nc(C(F)(F)F)c2c1C(c1ccc(Cl)cc1F)N(c1ccc3[nH]cnc3c1)C2=O (centres unmarked) [FRPPO-053]	5 to 50 µM
Cc1c2c(nn1C1CC1)C(=O)N(c1ccc3[nH]cnc3c1)C2c1ccc(N2CCC(C(F)(F)F)CC2)cc1F (centres unmarked) [FRPPO-136]	< 1 µM
Cc1c2c(nn1C)C(=O)N(c1ccc3[nH]cnc3c1)C2c1ccc(N2CC(F)C2)cc1F (centres unmarked) [FRPPO-072]	< 1 µM
Cc1c2c(nn1C)C(=O)N(c1ccc3[nH]cnc3c1)C2c1ccc(N2CCCC(O)C2)cc1F (centres unmarked) [FRPPO-086]	1 to 5 µM
Cc1c2c(nn1C)C(=O)N(c1ccc3[nH]cnc3c1)C2c1ccc(N2CCC(F)C2)cc1F (centres unmarked) [FRPPO-073]	1 to 5 µM
Cc1c2c(nn1C1CC1)C(=O)N(c1ccc3[nH]cnc3c1)C2c1ccc(N2CCC(F)(F)CC2)cc1F (centres unmarked) [FRPPO-137]	< 1 µM
Cc1c2c(nn1C)C(=O)N(c1ccc3[nH]cnc3c1)C2c1cccc(C2CCN(C)CC2)c1F (centres unmarked) [FRPPO-155]	5 to 50 µM
Cc1c2c(nn1C)C(=O)N(c1ccc3[nH]cnc3c1)C2c1ccc(-n2cc(C(F)(F)F)cn2)cc1F (centres unmarked) [FRPPO-150A]	< 1 µM
Cc1c2c(nn1C)C(=O)N(c1ccc3[nH]cnc3c1)C2c1ccc(N2CCO[C@@H](C)C2)cc1F (some centres unmarked) [FRPPO-114A]	< 1 µM
Cc1c2c(nn1C)C(=O)N(c1ccc3[nH]cnc3c1)C2c1ccc(N2CC3CCC(C2)O3)cc1F (centres unmarked) [FRPPO-096]	< 1 µM
Cc1c2c(nn1C)C(=O)N(c1ccc3[nH]cnc3c1)C2c1ccc(N2CCOC[C@H]2C)cc1F (some centres unmarked) [FRPPO-113B]	< 1 µM
Cc1c2c(nn1C)C(=O)N(c1ccc3[nH]cnc3c1)C2c1ccc(-c2ccc(OC(F)(F)F)nc2)cc1F (centres unmarked) [FRPPO-142A]	< 1 µM
CCCOc1ccc(C2c3c(C)nn(C)c3C(=O)N2c2ccc3[nH]cnc3c2)cc1 (centres unmarked) [FRPPO-002]	1 to 5 µM
Cc1c2c(nn1C)C(=O)N(c1ccc3[nH]cnc3c1)C2c1ccc(N2CCC(F)(F)C2)c(F)c1F (centres unmarked) [FRPPO-154]	< 1 µM
Cc1c2c(nn1C)C(=O)N(c1ccc3[nH]cnc3c1)C2c1ccc(N2CCC(O)CC2)cc1F (centres unmarked) [FRPPO-085]	5 to 50 µM
Cc1c2c(nn1C)C(=O)N(c1ccc3[nH]cnc3c1)C2c1ccc(N2CC3CC2CO3)cc1F (centres unmarked) [FRPPO-081]	1 to 5 µM
Cc1[nH]nc2c1C(c1ccc(-n3cc(C(F)(F)F)cn3)cc1F)N(c1ccn3ccnc3c1)C2=O (centres unmarked) [FRPPO-198]	< 1 µM
CC(O)c1c2c(nn1C)C(=O)N(c1ccc3[nH]cnc3c1)C2c1ccc(N2CCC(F)(F)C2)cc1F (centres unmarked) [FRPPO-156]	< 1 µM
Cn1nc2c(c1CO)C(c1ccc(N3CCC(F)(F)C3)cc1F)N(c1ccc3[nH]cnc3c1)C2=O (centres unmarked) [FRPPO-157]	< 1 µM
Cn1nc(C(F)(F)F)c2c1C(c1ccc(N3CCC(F)(F)C3)cc1F)N(c1ccc3[nH]cnc3c1)C2=O (centres unmarked) [FRPPO-050]	1 to 5 µM
Cc1[nH]nc2c1C(c1ccc(-c3csc(C(F)(F)F)n3)cc1F)N(c1ccc3[nH]cnc3c1)C2=O (centres unmarked) [FRPPO-147]	< 1 µM
Cc1c2c(nn1C)C(=O)N(c1ccc3[nH]cnc3c1)C2c1ccc(N2CCOC[C@@H]2C)cc1F (some centres unmarked) [FRPPO-113A]	< 1 µM
Cc1c2c(nn1C)C(=O)N(c1ccc3[nH]cnc3c1)C2c1ccc(N2CC(O)C(F)C2)cc1F (centres unmarked) [FRPPO-089]	1 to 5 µM
